Laboratory results: patent US20180110777A1, “METHOD FOR REGULATION OF TELOMERE LENGTH” (The Johns Hopkins University, priority 2015, published 2018)

Tests used:
PARP1-4 = conditions: in vitro assays; cited from earlier work
tankyrases = conditions: in vitro assays; cited from earlier work
PARP1 = assay: Western blot of PARylation with antibody against poly ADP-ribose; format: cell-based; conditions: antibody directed against poly ADP-ribose
Procedure: To examine activation of ATM kinase pathway in response to PARP1 inhibition the phosphorylation levels of KAP1, in response to the PARP1 inhibitor, Olaparib was measured.
To detect phospho-proteins, 1× lysis buffer made of final concentration of 1×RIPA™ (Cell Signaling, #98016S), 1× protease inhibitor cocktail, 1× PhosSTOP™ (Roche, 4906845001) was added directly to cells on the dish after washing with PBS. Protein concentration was measured with a BCA protein assay kit (Thermo, #23227). Typically 10 μg of protein from each sample was applied to SDS-PAGE gels (Biorad, #456-1084) and transferred to nitrocellulose membranes in transfer buffer. After blocking with the Odyssey™ blocking buffer (LI-COR, #927-40000), membranes were incubated at 4° C. overnight or 1 hr at RT with the following primary antibodies: anti-phospho-Kap1 (Bethyl Lab, #A300-767A); anti-phospho-CHK1 (Cell Signaling, #2348S); anti-phospho-ATM (Millipore, #05-740); anti-HA (Santa Cruz, #sc-7392); anti-Actin (Santa Cruz, #sc-1616); anti-PAR (Trevigen, #4335-MC-100). The following day, blots are washed with 1×PBS− T for 3×15 minutes, and then incubated with secondary antibodies conjugated to near-infrared dyes (IRDye® 680 anti-goat, 800 anti-rabbit, 800 anti-mouse, LI-COR). […] Band intensities were quantified using the Odyssey™ software (LI-COR) and normalized to Actin levels. […]

SL13 cells = assay: Telomere Southern blot after lentiviral overexpression of mTR and mTERT; format: cell-based, mouse; conditions: SL13 cells transduced with lentivirus expressing mTR and mTERT; day 6
human HCT116 = assay: Bulk telomere length, Southern blot, HCT116; format: cell-based; conditions: HCT116 cells
HT1080 cells = assay: Bulk telomere length, Southern blot, HT1080; format: cell-based, human

Row | Compound | specificity to PARP1-4 (PARP1-4) | effect on tankyrases (tankyrases) | PARylation (PARP1) | telomere elongation on overexpression of telomerase (Southern blot) (SL13 cells) | bulk telomere length (human HCT116) | bulk telomere length (HT1080 cells)
1 | O=C(c1cc(Cc2n[nH]c(=O)c3ccccc23)ccc1F)N1CCN(C(=O)C2CC2)CC1 [Olaparib] | highly specific to PARP1-4 | little effect on tankyrases | inhibited PARylation |  |  | 
2 | O=c1cc(-c2cccc3c2Sc2ccccc2S3)oc(N2CCOCC2)c1 [KU55933] |  |  |  | blocked this telomere elongation | telomere shortening | shortens bulk telomeres
